Source: patent US7820405B2, “Specific bacterial inclusions in bone marrow cells indicate systematic lupus erthematosus, and treatment for lupus” (Sphingomanas Research Partners, L.P., priority 2005, dated 2010)

Test system: intra-erythrocytic bacterial structures (Mycoplasma haemosapiens)
Format: in vivo, human
Conditions: Patient A, during doxycycline 100 mg twice daily; declined from about 16% before therapy

C[C@H]1c2cccc(O)c2C(=O)C2=C(O)[C@]3(O)C(=O)C(C(N)=O)=C(O)[C@@H](N(C)C)[C@@H]3[C@@H](O)[C@@H]21 [doxycycline]
percentage of parasitized erythrocytes: approximately 8%
